test system: HCV 1b_Huh-Luc/Neo-ET cell line (genotype 1b replicon in Huh 7 cells); experiment: HCV replicon assay (luciferase readout); type: cell-based; settings: Hepatitis C virus, HCV 1b replicon in Huh 7 cells, 72 h incubation, EC50 range class, read-out: Inhibition of HCV genotype 1b
Protocol: Biological activity of the compounds of the invention was determined using an HCV replicon assay. The HCV 1b_Huh-Luc/Neo-ET cell line persistently expressing a bicistronic genotype 1b replicon in Huh 7 cells was obtained from ReBLikon GMBH. This cell line was used to test compound inhibition using luciferase enzyme activity readout as a measurement of compound inhibition of replicon levels.
On Day 1 (the day after plating cells), each compound is added in triplicate to the cells. Plates are incubated for 72 h prior to determining luciferase levels. Enzyme activity was measured using a Bright-Glo Kit (cat. number E2620) manufactured by Promega Corporation. The following equation was used to generate a percent control value for each compound. % Control=(Compound Luciferase Level/Control Luciferase Level)*100
The EC50 value was determined using GraphPad Prism and the following equation: Y=Bottom asymptote+(Top asymptote-Bottom asymptote)/(1+10^((Log EC50−X)*HillSlope))
EC50 values of compounds are determined several times in the replicon assay to generate average EC50 values. […]

SMILES	EC50 [nM]
COC(=O)N[C@H](C(=O)N1CCC[C@H]1c1ncc(-c2ccc3c(c2)Oc2ccc(-c4cnc([C@@H]5CCCN5C(=O)[C@@H](NC(=O)OC)C(C)C)[nH]4)cc2O3)[nH]1)C(C)C [Example 3]	< 1
COC(=O)N[C@H](C(=O)N1CCC[C@H]1c1ncc(-c2ccc3c(c2)Cc2cc(-c4cnc([C@@H]5CCCN5C(=O)[C@@H](NC(=O)OC)C(C)C)[nH]4)ccc2O3)[nH]1)C(C)C [Example 4]	10 to 999
COC(=O)N[C@@H](C(=O)N1CCC[C@H]1c1ncc(-c2ccc3c(c2)Cc2cc(-c4cnc([C@@H]5CCCN5C(=O)[C@H](NC(=O)OC)c5ccccc5)[nH]4)ccc2O3)[nH]1)c1ccccc1 [Example 5]	< 1
COC(=O)N[C@H](C(=O)N1CCC[C@H]1c1ncc(-c2ccc3c(c2)Cc2ccc(-c4cnc([C@@H]5CCCN5C(=O)[C@@H](NC(=O)OC)C(C)C)[nH]4)cc2O3)[nH]1)C(C)C [Example 6]	< 1
COC(=O)N[C@H](C(=O)N1CCC[C@H]1c1ncc(-c2ccc3c(c2)CCc2cc(-c4cnc([C@@H]5CCCN5C(=O)[C@@H](NC(=O)OC)C(C)C)[nH]4)ccc2O3)[nH]1)C(C)C [Example 7]	< 1
COC(=O)N[C@H](C(=O)N1CCC[C@H]1c1ncc(-c2ccc3c(=O)c4cc(-c5cnc([C@@H]6CCCN6C(=O)[C@@H](NC(=O)OC)C(C)C)[nH]5)ccc4oc3c2)[nH]1)C(C)C [Example 8]	< 1
CC(C)(C)OC(=O)N1CCC[C@H]1c1ncc(-c2ccc3c(=O)c4cc(-c5cnc([C@@H]6CCCN6C(=O)OC(C)(C)C)[nH]5)ccc4oc3c2)[nH]1 [Example 9]	10 to 999
COC(=O)N[C@H](C(=O)N1CCC[C@H]1c1ncc(-c2ccc3c(c2)Oc2ccc(-c4cnc([C@@H]5CCCN5C(=O)[C@@H](NC(=O)OC)C(C)C)[nH]4)cc2C3(C)C)[nH]1)C(C)C [Example 10]	< 1
COC(=O)N[C@H](C(=O)N1CCC[C@H]1c1ncc(-c2ccc3c(c2)c(=O)c2ccc(-c4cnc([C@@H]5CCCN5C(=O)[C@@H](NC(=O)OC)C(C)C)[nH]4)cc2n3C)[nH]1)C(C)C [Example 11]	< 1
COC(=O)N[C@H](C(=O)N1CCC[C@H]1c1ncc(-c2ccc3c(c2)CCc2ccc(-c4cnc([C@@H]5CCCN5C(=O)[C@@H](NC(=O)OC)C(C)C)[nH]4)cc2O3)[nH]1)C(C)C [Example 12]	< 1
COC(=O)N[C@H](C(=O)N1CCC[C@H]1c1ncc(-c2ccc3c(c2)CN(C)c2ccc(-c4cnc([C@@H]5CCCN5C(=O)[C@@H](NC(=O)OC)C(C)C)[nH]4)cc2CN3C)[nH]1)C(C)C [Example 13]	< 1
COC(=O)N[C@H](C(=O)N1CCC[C@H]1c1ncc(-c2ccc3c(c2)Oc2ccc(-c4cnc([C@@H]5CCCN5C(=O)[C@@H](NC(=O)OC)C(C)C)[nH]4)cc2C(=O)N3)[nH]1)C(C)C [Example 14]	10 to 999
COC(=O)N[C@H](C(=O)N1CCC[C@H]1c1ncc(-c2ccc3c(=O)c4cc(-c5cnc([C@@H]6CCCN6C(=O)[C@H](NC(=O)OC)c6ccccc6)[nH]5)ccc4oc3c2)[nH]1)C(C)C [Example 15]	< 1
COC(=O)N[C@H](C(=O)N1CCC[C@H]1c1ncc(-c2ccc3c(=O)c4cc(-c5cnc([C@@H]6CCCN6C(=O)[C@@H](NC(=O)OC)C6CCOCC6)[nH]5)ccc4oc3c2)[nH]1)C(C)C [Example 16]	< 1
COC(=O)N[C@H](C(=O)N1CCC[C@H]1c1ncc(-c2ccc3oc4cc(-c5cnc([C@@H]6CCCN6C(=O)[C@@H](NC(=O)OC)C6CCOCC6)[nH]5)ccc4c(=O)c3c2)[nH]1)C(C)C [Example 17]	< 1
COC(=O)N[C@H](C(=O)N1CCC[C@H]1c1ncc(-c2ccc3oc4cc(-c5cnc([C@@H]6CCCN6C(=O)[C@H](NC(=O)OC)c6ccccc6)[nH]5)ccc4c(=O)c3c2)[nH]1)C(C)C [Example 18]	< 1
COC(=O)N[C@H](C(=O)N1CCC[C@H]1c1ncc(-c2ccc3c(=O)c4cc(-c5cnc([C@@H]6CCCN6C(=O)[C@H](NC(=O)OC6CCOCC6)c6ccccc6)[nH]5)ccc4oc3c2)[nH]1)C(C)C [Example 19]	< 1
